Assays:
Test in all cases: KINOMEscan competition binding
Details in all cases: compound 10.0 µM
AKT3 (human) = AKT3 (human) (UniProt Q9Y243)
PAK1 (human) = PAK1 (human) (UniProt Q13153)
PAK7 (human) = PAK7 (human) (UniProt Q9P286)
STK36 (human) = STK36 (human) (UniProt Q9NRP7)
BMPR1A (human) = BMPR1A (human) (UniProt P36894)
MAPK7 (human) = MAPK7 (human) (UniProt Q13164)
CDK14 (human) = CDK14 (human) (UniProt O94921)
SGK110 (human) = SGK110 (human) (UniProt P0C264)
BMPR2 (human) = BMPR2 (human) (UniProt Q13873)
[1] = test system: EGFR (human), P00533 [L858R]
SRC (human) = SRC (human) (UniProt P12931)
PIK3CD (human) = PIK3CD (human) (UniProt O00329)
[2] = test system: ABL1 (human), P00519 [F317L]
[3] = test system: EGFR (human), P00533 [A750P; 747-749 del]
MYO3B (human) = MYO3B (human) (UniProt Q8WXR4)
MAP3K12 (human) = MAP3K12 (human) (UniProt Q12852)
[4] = test system: RET (human), P07949 [V804M]
ULK3 (human) = ULK3 (human) (UniProt Q6PHR2)
ZAP70 (human) = ZAP70 (human) (UniProt P43403)
ROS1 (human) = ROS1 (human) (UniProt P08922)
MERTK (human) = MERTK (human) (UniProt Q12866)
EPHA1 (human) = EPHA1 (human) (UniProt P21709)
MAPK13 (human) = MAPK13 (human) (UniProt O15264)
PRKACA (human) = PRKACA (human) (UniProt P17612)
MAP2K2 (human) = MAP2K2 (human) (UniProt P36507)
ALK (human) = ALK (human) (UniProt Q9UM73)
FER (human) = FER (human) (UniProt P16591)
PAK6 (human) = PAK6 (human) (UniProt Q9NQU5)
MAP3K3 (human) = MAP3K3 (human) (UniProt Q99759)
CDK11A (human) = CDK11A (human) (UniProt Q9UQ88)
PIK3C2B (human) = PIK3C2B (human) (UniProt O00750)
CSNK1G2 (human) = CSNK1G2 (human) (UniProt P78368)
PAK2 (human) = PAK2 (human) (UniProt Q13177)
ERBB4 (human) = ERBB4 (human) (UniProt Q15303)
RAF1 (human) = RAF1 (human) (UniProt P04049)
PIK3CB (human) = PIK3CB (human) (UniProt P42338)
SRMS (human) = SRMS (human) (UniProt Q9H3Y6)
[5] = test system: ABL1 (human), P00519 [Q252H]
STK38L (human) = STK38L (human) (UniProt Q9Y2H1)
BMX (human) = BMX (human) (UniProt P51813)
INSRR (human) = INSRR (human) (UniProt P14616)
PKMYT1 (human) = PKMYT1 (human) (UniProt Q99640)

RET (human), P07949 [V804M], sequence (P07949 whole entry V804M, looked up): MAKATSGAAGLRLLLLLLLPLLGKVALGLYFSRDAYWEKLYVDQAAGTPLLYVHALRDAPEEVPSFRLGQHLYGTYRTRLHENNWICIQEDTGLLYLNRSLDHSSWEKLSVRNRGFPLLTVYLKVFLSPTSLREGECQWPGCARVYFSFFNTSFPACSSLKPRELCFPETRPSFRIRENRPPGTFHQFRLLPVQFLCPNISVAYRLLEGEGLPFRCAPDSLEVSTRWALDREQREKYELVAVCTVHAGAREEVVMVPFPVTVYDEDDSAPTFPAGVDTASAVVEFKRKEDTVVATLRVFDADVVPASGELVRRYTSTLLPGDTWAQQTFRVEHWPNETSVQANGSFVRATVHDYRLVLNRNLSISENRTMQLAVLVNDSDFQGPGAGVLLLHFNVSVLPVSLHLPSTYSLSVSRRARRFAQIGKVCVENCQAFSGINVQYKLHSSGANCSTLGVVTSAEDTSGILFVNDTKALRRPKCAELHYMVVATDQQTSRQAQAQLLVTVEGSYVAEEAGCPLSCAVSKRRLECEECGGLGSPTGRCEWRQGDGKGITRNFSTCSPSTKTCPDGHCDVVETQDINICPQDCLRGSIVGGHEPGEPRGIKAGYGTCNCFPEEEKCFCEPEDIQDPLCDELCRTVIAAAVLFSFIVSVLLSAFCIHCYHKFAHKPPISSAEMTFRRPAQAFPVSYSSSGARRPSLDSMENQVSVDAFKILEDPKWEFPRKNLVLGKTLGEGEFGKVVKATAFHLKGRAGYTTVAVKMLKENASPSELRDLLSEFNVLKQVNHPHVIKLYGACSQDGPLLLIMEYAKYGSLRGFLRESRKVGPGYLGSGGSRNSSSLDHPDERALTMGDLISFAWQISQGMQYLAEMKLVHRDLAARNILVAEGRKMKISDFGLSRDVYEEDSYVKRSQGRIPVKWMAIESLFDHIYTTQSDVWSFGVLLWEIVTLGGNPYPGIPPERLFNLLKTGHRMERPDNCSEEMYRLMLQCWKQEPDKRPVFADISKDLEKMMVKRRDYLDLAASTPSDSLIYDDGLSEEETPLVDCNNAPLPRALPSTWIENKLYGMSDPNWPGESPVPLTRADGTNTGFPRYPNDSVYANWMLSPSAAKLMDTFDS
FER (human), sequence (P16591 whole entry, looked up): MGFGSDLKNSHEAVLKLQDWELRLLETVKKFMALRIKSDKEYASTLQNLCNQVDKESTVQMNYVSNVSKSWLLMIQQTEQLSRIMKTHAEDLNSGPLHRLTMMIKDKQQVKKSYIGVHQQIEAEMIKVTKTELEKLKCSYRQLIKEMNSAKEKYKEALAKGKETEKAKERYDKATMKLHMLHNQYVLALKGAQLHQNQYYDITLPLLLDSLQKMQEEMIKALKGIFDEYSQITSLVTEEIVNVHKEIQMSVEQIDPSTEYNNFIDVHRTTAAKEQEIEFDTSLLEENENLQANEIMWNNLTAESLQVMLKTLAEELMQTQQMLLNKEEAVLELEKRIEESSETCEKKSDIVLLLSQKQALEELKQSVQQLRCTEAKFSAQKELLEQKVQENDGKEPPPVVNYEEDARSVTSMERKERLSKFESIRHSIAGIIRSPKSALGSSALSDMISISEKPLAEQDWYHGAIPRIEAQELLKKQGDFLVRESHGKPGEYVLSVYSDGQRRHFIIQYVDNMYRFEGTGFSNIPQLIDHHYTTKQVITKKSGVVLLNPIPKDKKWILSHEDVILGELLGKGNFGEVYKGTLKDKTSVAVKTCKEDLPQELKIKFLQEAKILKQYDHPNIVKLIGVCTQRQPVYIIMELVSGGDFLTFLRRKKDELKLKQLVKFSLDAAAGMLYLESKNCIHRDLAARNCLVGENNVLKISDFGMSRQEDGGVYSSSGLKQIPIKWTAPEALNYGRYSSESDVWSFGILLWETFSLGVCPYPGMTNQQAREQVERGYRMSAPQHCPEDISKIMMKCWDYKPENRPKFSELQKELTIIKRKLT
CDK14 (human), sequence (O94921 whole entry, looked up): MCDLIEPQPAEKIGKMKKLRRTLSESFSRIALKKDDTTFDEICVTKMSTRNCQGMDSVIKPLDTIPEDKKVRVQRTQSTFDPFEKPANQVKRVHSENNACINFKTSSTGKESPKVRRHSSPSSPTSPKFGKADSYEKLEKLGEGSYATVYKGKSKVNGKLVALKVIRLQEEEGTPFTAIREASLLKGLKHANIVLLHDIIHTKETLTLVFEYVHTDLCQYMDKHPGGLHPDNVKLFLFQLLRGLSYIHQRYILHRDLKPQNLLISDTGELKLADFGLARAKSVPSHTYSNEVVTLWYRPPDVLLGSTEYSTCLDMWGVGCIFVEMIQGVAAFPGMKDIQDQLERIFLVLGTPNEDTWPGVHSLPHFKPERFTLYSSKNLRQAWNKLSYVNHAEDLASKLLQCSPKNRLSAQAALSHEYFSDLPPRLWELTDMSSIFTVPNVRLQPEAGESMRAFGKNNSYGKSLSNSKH
MAP3K12 (human), sequence (Q12852 whole entry, looked up): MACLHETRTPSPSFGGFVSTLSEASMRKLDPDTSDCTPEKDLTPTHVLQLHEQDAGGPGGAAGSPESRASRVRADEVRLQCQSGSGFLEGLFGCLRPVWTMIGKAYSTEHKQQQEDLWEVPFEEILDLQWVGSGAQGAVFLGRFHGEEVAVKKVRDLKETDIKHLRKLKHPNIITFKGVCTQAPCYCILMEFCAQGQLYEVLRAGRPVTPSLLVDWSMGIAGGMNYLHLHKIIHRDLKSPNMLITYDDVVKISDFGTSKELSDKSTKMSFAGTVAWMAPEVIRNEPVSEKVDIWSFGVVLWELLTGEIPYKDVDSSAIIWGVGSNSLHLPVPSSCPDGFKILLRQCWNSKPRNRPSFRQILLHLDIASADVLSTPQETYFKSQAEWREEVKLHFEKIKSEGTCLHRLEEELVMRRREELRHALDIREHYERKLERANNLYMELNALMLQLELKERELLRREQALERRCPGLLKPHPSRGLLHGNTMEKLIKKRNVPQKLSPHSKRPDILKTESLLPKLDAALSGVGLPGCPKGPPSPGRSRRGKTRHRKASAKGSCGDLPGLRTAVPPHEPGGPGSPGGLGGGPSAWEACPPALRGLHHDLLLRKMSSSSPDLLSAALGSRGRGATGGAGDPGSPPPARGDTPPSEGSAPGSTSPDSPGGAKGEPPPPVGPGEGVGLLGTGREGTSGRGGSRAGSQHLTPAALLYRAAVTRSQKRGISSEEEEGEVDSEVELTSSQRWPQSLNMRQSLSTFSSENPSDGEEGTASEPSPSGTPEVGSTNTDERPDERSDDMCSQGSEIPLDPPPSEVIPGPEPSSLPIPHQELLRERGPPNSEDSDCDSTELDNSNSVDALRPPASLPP
SRMS (human), sequence (Q9H3Y6 whole entry, looked up): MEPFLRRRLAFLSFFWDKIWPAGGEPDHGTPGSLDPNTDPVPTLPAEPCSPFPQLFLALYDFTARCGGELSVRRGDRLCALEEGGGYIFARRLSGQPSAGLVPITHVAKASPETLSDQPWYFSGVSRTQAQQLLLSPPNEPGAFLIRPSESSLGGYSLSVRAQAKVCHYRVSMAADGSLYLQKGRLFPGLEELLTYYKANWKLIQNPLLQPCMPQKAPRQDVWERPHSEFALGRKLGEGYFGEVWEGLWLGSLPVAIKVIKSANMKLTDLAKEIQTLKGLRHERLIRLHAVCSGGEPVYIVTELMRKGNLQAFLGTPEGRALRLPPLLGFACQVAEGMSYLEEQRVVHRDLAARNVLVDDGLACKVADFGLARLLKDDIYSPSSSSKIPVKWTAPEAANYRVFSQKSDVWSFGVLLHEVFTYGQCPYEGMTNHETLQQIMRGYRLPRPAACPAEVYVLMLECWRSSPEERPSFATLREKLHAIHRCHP
MAP3K3 (human), sequence (Q99759 whole entry, looked up): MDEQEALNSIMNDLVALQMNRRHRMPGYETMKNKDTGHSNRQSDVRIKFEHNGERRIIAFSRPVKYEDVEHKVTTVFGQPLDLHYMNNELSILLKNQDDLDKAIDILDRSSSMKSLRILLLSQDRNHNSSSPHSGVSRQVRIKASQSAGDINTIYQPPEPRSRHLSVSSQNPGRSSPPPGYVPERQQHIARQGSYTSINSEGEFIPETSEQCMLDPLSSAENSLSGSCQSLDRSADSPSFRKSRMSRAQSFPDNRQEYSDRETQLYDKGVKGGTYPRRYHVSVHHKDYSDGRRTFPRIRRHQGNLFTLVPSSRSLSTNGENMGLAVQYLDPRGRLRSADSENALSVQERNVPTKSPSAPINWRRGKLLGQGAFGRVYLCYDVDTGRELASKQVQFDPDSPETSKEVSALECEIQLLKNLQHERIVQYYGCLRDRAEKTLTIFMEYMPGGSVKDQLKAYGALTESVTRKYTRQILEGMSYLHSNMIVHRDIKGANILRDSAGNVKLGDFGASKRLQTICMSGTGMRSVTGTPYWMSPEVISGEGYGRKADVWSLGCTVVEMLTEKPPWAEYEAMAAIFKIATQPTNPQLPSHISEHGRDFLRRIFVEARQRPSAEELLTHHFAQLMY
ULK3 (human), sequence (Q6PHR2 whole entry, looked up): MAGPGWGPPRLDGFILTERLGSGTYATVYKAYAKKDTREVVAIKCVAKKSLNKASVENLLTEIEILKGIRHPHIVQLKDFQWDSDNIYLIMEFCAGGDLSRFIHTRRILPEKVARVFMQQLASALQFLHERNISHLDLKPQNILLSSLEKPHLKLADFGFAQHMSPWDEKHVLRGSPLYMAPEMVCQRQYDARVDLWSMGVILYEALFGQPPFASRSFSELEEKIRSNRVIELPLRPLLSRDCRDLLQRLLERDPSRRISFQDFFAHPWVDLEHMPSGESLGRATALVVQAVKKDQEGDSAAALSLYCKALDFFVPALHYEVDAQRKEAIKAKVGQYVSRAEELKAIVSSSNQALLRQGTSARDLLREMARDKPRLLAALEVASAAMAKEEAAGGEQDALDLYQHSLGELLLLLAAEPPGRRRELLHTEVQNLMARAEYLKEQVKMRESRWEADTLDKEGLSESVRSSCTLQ

Structure (SMILES): COc1cc(N2CCN(C)CC2)ccc1Nc1ncc2c(n1)N(C)c1sccc1C(=O)N2C
- kinase still bound, per cent of control (AKT3 (human)): 100%
- kinase still bound, per cent of control (PAK1 (human)): 81%
- kinase still bound, per cent of control (PAK7 (human)): 71%
- kinase still bound, per cent of control (STK36 (human)): 100%
- kinase still bound, per cent of control (BMPR1A (human)): 100%
- kinase still bound, per cent of control (MAPK7 (human)): 0.1%
- kinase still bound, per cent of control (CDK14 (human)): 96%
- kinase still bound, per cent of control (SGK110 (human)): 55%
- kinase still bound, per cent of control (BMPR2 (human)): 100%
- kinase still bound, per cent of control [1]: 63%
- kinase still bound, per cent of control (SRC (human)): 97%
- kinase still bound, per cent of control (PIK3CD (human)): 48%
- kinase still bound, per cent of control [2]: 1.8%
- kinase still bound, per cent of control [3]: 70%
- kinase still bound, per cent of control (MYO3B (human)): 52%
- kinase still bound, per cent of control (MAP3K12 (human)): 86%
- kinase still bound, per cent of control [4]: 88%
- kinase still bound, per cent of control (ULK3 (human)): 100%
- kinase still bound, per cent of control (ZAP70 (human)): 74%
- kinase still bound, per cent of control (ROS1 (human)): 100%
- kinase still bound, per cent of control (MERTK (human)): 100%
- kinase still bound, per cent of control (EPHA1 (human)): 87%
- kinase still bound, per cent of control (MAPK13 (human)): 71%
- kinase still bound, per cent of control (PRKACA (human)): 97%
- kinase still bound, per cent of control (MAP2K2 (human)): 77%
- kinase still bound, per cent of control (ALK (human)): 44%
- kinase still bound, per cent of control (FER (human)): 36%
- kinase still bound, per cent of control (PAK6 (human)): 74%
- kinase still bound, per cent of control (MAP3K3 (human)): 72%
- kinase still bound, per cent of control (CDK11A (human)): 95%
- kinase still bound, per cent of control (PIK3C2B (human)): 85%
- kinase still bound, per cent of control (CSNK1G2 (human)): 87%
- kinase still bound, per cent of control (PAK2 (human)): 71%
- kinase still bound, per cent of control (ERBB4 (human)): 88%
- kinase still bound, per cent of control (RAF1 (human)): 94%
- kinase still bound, per cent of control (PIK3CB (human)): 90%
- kinase still bound, per cent of control (SRMS (human)): 76%
- kinase still bound, per cent of control [5]: 90%
- kinase still bound, per cent of control (STK38L (human)): 88%
- kinase still bound, per cent of control (BMX (human)): 100%
- kinase still bound, per cent of control (INSRR (human)): 96%
- kinase still bound, per cent of control (PKMYT1 (human)): 92%

Structure (SMILES): COc1cc(N2CCC(O)CC2)ccc1Nc1ncc2c(n1)N1CCc3cccc(c31)C(=O)N2C
- kinase still bound, per cent of control (AKT3 (human)): 61%
- kinase still bound, per cent of control (PAK1 (human)): 83%
- kinase still bound, per cent of control (PAK7 (human)): 64%
- kinase still bound, per cent of control (STK36 (human)): 100%
- kinase still bound, per cent of control (BMPR1A (human)): 100%
- kinase still bound, per cent of control (MAPK7 (human)): 0.3%
- kinase still bound, per cent of control (CDK14 (human)): 91%
- kinase still bound, per cent of control (SGK110 (human)): 100%
- kinase still bound, per cent of control (BMPR2 (human)): 100%
- kinase still bound, per cent of control [1]: 88%
- kinase still bound, per cent of control (SRC (human)): 100%
- kinase still bound, per cent of control (PIK3CD (human)): 48%
- kinase still bound, per cent of control [2]: 63%
- kinase still bound, per cent of control [3]: 84%
- kinase still bound, per cent of control (MYO3B (human)): 77%
- kinase still bound, per cent of control (MAP3K12 (human)): 71%
- kinase still bound, per cent of control [4]: 93%
- kinase still bound, per cent of control (ULK3 (human)): 100%
- kinase still bound, per cent of control (ZAP70 (human)): 65%
- kinase still bound, per cent of control (ROS1 (human)): 29%
- kinase still bound, per cent of control (MERTK (human)): 100%
- kinase still bound, per cent of control (EPHA1 (human)): 100%
- kinase still bound, per cent of control (MAPK13 (human)): 87%
- kinase still bound, per cent of control (PRKACA (human)): 100%
- kinase still bound, per cent of control (MAP2K2 (human)): 99%
- kinase still bound, per cent of control (ALK (human)): 36%
- kinase still bound, per cent of control (FER (human)): 74%
- kinase still bound, per cent of control (PAK6 (human)): 92%
- kinase still bound, per cent of control (MAP3K3 (human)): 94%
- kinase still bound, per cent of control (CDK11A (human)): 100%
- kinase still bound, per cent of control (PIK3C2B (human)): 100%
- kinase still bound, per cent of control (CSNK1G2 (human)): 100%
- kinase still bound, per cent of control (PAK2 (human)): 67%
- kinase still bound, per cent of control (ERBB4 (human)): 87%
- kinase still bound, per cent of control (RAF1 (human)): 98%
- kinase still bound, per cent of control (PIK3CB (human)): 92%
- kinase still bound, per cent of control (SRMS (human)): 87%
- kinase still bound, per cent of control [5]: 100%
- kinase still bound, per cent of control (STK38L (human)): 94%
- kinase still bound, per cent of control (BMX (human)): 93%
- kinase still bound, per cent of control (INSRR (human)): 78%
- kinase still bound, per cent of control (PKMYT1 (human)): 69%

From the kinase profiling compilation of Christmann-Franck et al. (2016)
